Measurements taken from PubChem BioAssay AID2060503 (Molecular Pharmacology Branch, DTP, NCI, 2025).

Test system: 817829-284-R-J1-PDC complex spheroids, viability
Assay: Anticancer human tumor 817829-284-R-J1-PDC patient-derived colon adenocarcinoma cell line growth inhibition [GQUAD]
Conditions: for IC50: curve of first compound; for viability, T/C: stronger effect = lower value
Excerpt: DNA G-quadruplex Stabilizer Agents in Combinations in Complex Spheroids
A high-throughput screen of multi-cell type tumor spheroids was designed to identify active combinations of DNA G-quadruplex stabilizer agents and targeted small molecules. Complex spheroids include a stromal component modeled by human endothelial cells (HUVEC) and fibroblasts modeled by human mesenchymal stem cells (MSCs). The concentration ranges selected for each drug and investigational agent were based upon clinically achievable concentrations if the clinical Cmax of the agent was known.
Compounds. The drugs and investigational agents: pidnarulex (CX-5461; NSC782164), APTO-253 (NSC789042), BRACO-19 (NSC847499), peposertib (NSC802822), ceralasertib (NSC780249), elimusertib (NSC800525), camonsertib (NSC841442), AZD-1390 (NSC803789), olaparib (NSC753686), talazoparib (NSC767125), ART-558 (NSC835418), sotorasib (NSC818433), MRTX-1133 (NSC836407), SN-38 (NSC673596), topotecan (NSC609699), etoposide (NSC141540), doxorubicin (NSC123127), gemcitabine (NSC613327), 5-fluorouracil (NSC19893), paclitaxel (NSC125973), vemurafenib (NSC761431), panobinostat (NSC761190), R-306465 (JNJ-16241199; NSC773264), adavosertib (NSC754352), TP-3654 (NSC805149), carboplatin (NSC241240), KSQ-4279 (NSC840948), and staurosporine (NSC755774) were obtained from the National Cancer Institute (NCI) Developmental Therapeutics Program Chemical Repository (34). The FDA-approved anticancer drug set is available from the NCI Developmental Therapeutics Program. […] The stock solutions were prepared in dimethyl sulfoxide (DMSO, Sigma-Aldrich, St. Louis, MO, cat. D2650) at 800-fold the tested concentration and stored at -70 degrees C prior to their use. All drugs and investigational agents were tested over a range starting from a high concentration at or near the clinical Cmax and decreasing in half-log increments. If the clinical Cmax for an agent had not been determined, the highest concentration tested was 10 microM.
2.3 Cell Culture. All cells were maintained in an incubator at 37 degrees C and 5% CO2 with 95% humidity. The PDC lines were cultured according to standard operating procedures established by the NCI PDMR. All PDCs were thawed and cultured in Matrigel-coated flasks prepared with a working solution of 1X Ham's F-12 nutrient mix, without supplementation (Invitrogen, cat. 11765054), 100 U/mL penicillin-streptomycin (Invitrogen, cat. 15140122), and 2.5% Matrigel (Corning Inc., cat. 354248) for the first three passages. The 857933-349-R-J2-PDC line was cultured in 6C/Colon 1B media, which includes advanced DMEM/F-12 (Thermo Fisher Scientific, cat. 12634028), 10 mM HEPES (Thermo Fisher Scientific, cat. 15630080), 1X GlutaMAX supplement (Thermo Fisher Scientific, cat. 35050061), 0.1 mg/mL primocin (InvivoGen, cat. ant-pm-2), 10% defined fetal bovine serum, heat inactivated (HyClone Laboratories Inc., cat. SH30070.03HI), 50% L-WRN conditioned media (ATCC, cat. CRL-3276), 1.25 mM N-Acetyl-L-cysteine (Sigma-Aldrich, cat. A9165), 10 mM nicotinamide (Sigma-Aldrich, cat. N0636), 1X B-27 supplement (Thermo Fisher Scientific, cat. 17504044), 1X N-2 supplement (Thermo Fisher Scientific, cat. 17502048), 10 microM Y-27632 dihydrochloride (Tocris Bioscience, cat. 1254), and 50 ng/mL human EGF recombinant protein (Thermo Fisher Scientific, cat. PHG0311). The 485176-168-R4-J1-PDC line was cultured in Panc media, which includes all 6C/Colon 1B media components plus 100 ng/mL human FGF-10 (Thermo Fisher Scientific, cat. 100-26), 500 nM SB-431542 (Selleckchem, cat. S1067), and gastrin (Tocris, cat. 3006).
[…]

[1] = second compound 0.0316 µM, first compound 0.0316 µM
[2] = second compound 0.0316 µM, first compound 0.1 µM
[3] = second compound 0.0316 µM, first compound 0.316 µM
[4] = second compound 0.0316 µM, first compound 1 µM
[5] = second compound 0.0316 µM, first compound 3.16 µM
[6] = second compound 0.0316 µM, first compound 10 µM
[7] = second compound 0.1 µM, first compound 0.0316 µM
[8] = second compound 0.1 µM, first compound 0.1 µM
[9] = second compound 0.1 µM, first compound 0.316 µM
[10] = second compound 0.1 µM, first compound 1 µM
[11] = second compound 0.1 µM, first compound 3.16 µM
[12] = second compound 0.1 µM, first compound 10 µM
[13] = second compound 0.316 µM, first compound 0.0316 µM
[14] = second compound 0.316 µM, first compound 0.1 µM
[15] = second compound 0.316 µM, first compound 0.316 µM
[16] = second compound 0.316 µM, first compound 1 µM
[17] = second compound 0.316 µM, first compound 3.16 µM
[18] = second compound 0.316 µM, first compound 10 µM
[19] = second compound 1 µM, first compound 0.0316 µM
[20] = second compound 1 µM, first compound 0.1 µM
[21] = second compound 1 µM, first compound 0.316 µM
[22] = second compound 1 µM, first compound 1 µM
[23] = second compound 1 µM, first compound 3.16 µM
[24] = second compound 1 µM, first compound 10 µM
[25] = second compound 3.16 µM, first compound 0.0316 µM
[26] = second compound 3.16 µM, first compound 0.1 µM
[27] = second compound 3.16 µM, first compound 0.316 µM
[28] = second compound 3.16 µM, first compound 1 µM
[29] = second compound 3.16 µM, first compound 3.16 µM
[30] = second compound 3.16 µM, first compound 10 µM
[31] = second compound 10 µM, first compound 0.0316 µM
[32] = second compound 10 µM, first compound 0.1 µM
[33] = second compound 10 µM, first compound 0.316 µM
[34] = second compound 10 µM, first compound 1 µM
[35] = second compound 10 µM, first compound 3.16 µM
[36] = second compound 10 µM, first compound 10 µM
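Also: spheroids exposed to agents for 7 days before readout.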
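For viability, T/C in this document: percent viability relative to DMSO vehicle control taken as 100%.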

For `CC(C)n1c(=O)n(C)c2cnc3cc(F)c(-c4ccc(OCCCN5CCCCC5)nc4)cc3c21` + Cc1cnc(CNC(=O)c2c(=O)c3ccc(N4CCCN(C)CC4)nc3n3c2sc2ccccc23)cn1, the IC50 (second compound 0.0316 µM) was < 31.6 nM, the IC50 (second compound 0.1 µM) was < 31.6 nM and the IC50 (second compound 0.316 µM) was < 31.6 nM. For the same molecule, the IC50 (second compound 1 µM) was < 31.6 nM, the IC50 (second compound 3.16 µM) was < 31.6 nM and the IC50 (second compound 10 µM) was < 31.6 nM. The viability, T/C [1] was 37.7%, the viability, T/C [2] was 32.1% and the viability, T/C [3] was 36.5%. For the same molecule, the viability, T/C [4] was 25.1%, the viability, T/C [5] was 26.6% and the viability, T/C [6] was 12.1%. For the same molecule, the viability, T/C [7] was 30.4%, the viability, T/C [8] was 27.3% and the viability, T/C [9] was 31.3%. For the same molecule, the viability, T/C [10] was 23.4%, the viability, T/C [11] was 22.9% and the viability, T/C [12] was 14.6%. The viability, T/C [13] was 23.7%, the viability, T/C [14] was 28.1% and the viability, T/C [15] was 23.1%. For the same molecule, the viability, T/C [16] was 21.5%, the viability, T/C [17] was 24.4% and the viability, T/C [18] was 9.33%. The viability, T/C [19] was 19.7%, the viability, T/C [20] was 21.1% and the viability, T/C [21] was 21.9%. The viability, T/C [22] was 23.1%, the viability, T/C [23] was 24.2% and the viability, T/C [24] was 8.09%. For the same molecule, the viability, T/C [25] was 16.6%, the viability, T/C [26] was 18.5% and the viability, T/C [27] was 19%. It also gave a viability, T/C [28] of 21%, a viability, T/C [29] of 18.8% and a viability, T/C [30] of 7.12%. For the same molecule, the viability, T/C [31] was 0.15%, the viability, T/C [32] was 0.17% and the viability, T/C [33] was 0.18%. For the same molecule, the viability, T/C [34] was 0.17%, the viability, T/C [35] was 0.18% and the viability, T/C [36] was 0.18%.

For `Cc1cccc(N(C)C(=O)C2C(O)CCN2c2nc(C)cc(C(F)(F)F)c2C#N)c1` (centres undefined) + Cc1cnc(CNC(=O)c2c(=O)c3ccc(N4CCCN(C)CC4)nc3n3c2sc2ccccc23)cn1, the IC50 (second compound 0.0316 µM) was > 10000 nM, the IC50 (second compound 0.1 µM) was < 31.6 nM and the IC50 (second compound 0.316 µM) was < 31.6 nM. The IC50 (second compound 1 µM) was < 31.6 nM, the IC50 (second compound 3.16 µM) was < 31.6 nM and the IC50 (second compound 10 µM) was < 31.6 nM. It also gave a viability, T/C [1] of 85.6%, a viability, T/C [2] of 82.6% and a viability, T/C [3] of 81.8%. For the same molecule, the viability, T/C [4] was 53.1%, the viability, T/C [5] was 91.4% and the viability, T/C [6] was 75%. The viability, T/C [7] was 38.5%, the viability, T/C [8] was 36.7% and the viability, T/C [9] was 29.3%. It also gave a viability, T/C [10] of 36.1%, a viability, T/C [11] of 39.3% and a viability, T/C [12] of 33.9%. It also gave a viability, T/C [13] of 27.7%, a viability, T/C [14] of 30.4% and a viability, T/C [15] of 26.6%. The viability, T/C [16] was 25.9%, the viability, T/C [17] was 28.6% and the viability, T/C [18] was 23%. For the same molecule, the viability, T/C [19] was 19.2%, the viability, T/C [20] was 22.1% and the viability, T/C [21] was 22.1%. The viability, T/C [22] was 20.2%, the viability, T/C [23] was 22.9% and the viability, T/C [24] was 19.1%. The viability, T/C [25] was 20.1%, the viability, T/C [26] was 18.9% and the viability, T/C [27] was 20.4%. It also gave a viability, T/C [28] of 18.8%, a viability, T/C [29] of 18% and a viability, T/C [30] of 17.2%. It also gave a viability, T/C [31] of 0.19%, a viability, T/C [32] of 0.22% and a viability, T/C [33] of 0.21%. It also gave a viability, T/C [34] of 0.21%, a viability, T/C [35] of 0.24% and a viability, T/C [36] of 0.21%.
